Legend:
Assay in all cases: Kinase Hotspot radiolabel assay
Format in all cases: biochemical
Conditions in all cases: read-out: % Residual Activity
[1] = biological target: T1, PLK1 (Homo sapiens, UniProt P53350)
T1 construct: purchased Reaction Biology Corporation (Kinase HotSpot)
How it was run: (§1)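 1 µM cpd; 369-kinase radiolabel Hotspot panel; Ki run for hits >90% inhibition.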

[2] = biological target: T2, CK1epsilon (Homo sapiens, UniProt P49674)
T2 construct: purchased Reaction Biology Corporation (Kinase HotSpot)
T2 sequence (P49674 whole entry): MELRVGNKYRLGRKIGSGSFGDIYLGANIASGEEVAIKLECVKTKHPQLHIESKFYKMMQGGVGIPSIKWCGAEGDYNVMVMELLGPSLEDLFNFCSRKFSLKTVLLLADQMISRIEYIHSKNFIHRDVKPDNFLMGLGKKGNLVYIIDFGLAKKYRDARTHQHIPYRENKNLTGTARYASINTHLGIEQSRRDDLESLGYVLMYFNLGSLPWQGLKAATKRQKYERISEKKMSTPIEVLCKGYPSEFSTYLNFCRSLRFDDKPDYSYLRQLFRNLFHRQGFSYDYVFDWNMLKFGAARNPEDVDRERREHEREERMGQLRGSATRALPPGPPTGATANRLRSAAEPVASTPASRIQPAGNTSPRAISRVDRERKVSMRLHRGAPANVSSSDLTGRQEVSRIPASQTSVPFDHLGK
How it was run: as §1

[3] = biological target: T3, PKG2/PRKG2 (Homo sapiens, UniProt Q13237)
T3 construct: purchased Reaction Biology Corporation (Kinase HotSpot)
How it was run: as §1

[4] = biological target: T4, WNK1 (Homo sapiens, UniProt Q9H4A3)
T4 construct: purchased Reaction Biology Corporation (Kinase HotSpot)
How it was run: as §1

[5] = biological target: T5, EPHA7 (Homo sapiens, UniProt Q15375)
T5 construct: purchased Reaction Biology Corporation (Kinase HotSpot)
How it was run: as §1

[6] = biological target: T6, PKG1a (Homo sapiens, UniProt Q13976)
T6 construct: purchased Reaction Biology Corporation (Kinase HotSpot)
How it was run: as §1

[7] = biological target: T7, STK32C/YANK3 (Homo sapiens, UniProt Q86UX6)
T7 construct: purchased Reaction Biology Corporation (Kinase HotSpot)
How it was run: as §1

[8] = biological target: T8, MLK2/MAP3K10 (Homo sapiens, UniProt Q02779)
T8 construct: purchased Reaction Biology Corporation (Kinase HotSpot)
How it was run: as §1

[9] = biological target: T9, P38g (Homo sapiens, UniProt P53778)
T9 construct: purchased Reaction Biology Corporation (Kinase HotSpot)
How it was run: as §1

[10] = biological target: T10, IKKa/CHUK (Homo sapiens, UniProt O15111)
T10 construct: purchased Reaction Biology Corporation (Kinase HotSpot)
How it was run: as §1

[11] = biological target: T11, YSK4/MAP3K19 (Homo sapiens, UniProt Q56UN5)
T11 construct: purchased Reaction Biology Corporation (Kinase HotSpot)
T11 sequence (Q56UN5 whole entry): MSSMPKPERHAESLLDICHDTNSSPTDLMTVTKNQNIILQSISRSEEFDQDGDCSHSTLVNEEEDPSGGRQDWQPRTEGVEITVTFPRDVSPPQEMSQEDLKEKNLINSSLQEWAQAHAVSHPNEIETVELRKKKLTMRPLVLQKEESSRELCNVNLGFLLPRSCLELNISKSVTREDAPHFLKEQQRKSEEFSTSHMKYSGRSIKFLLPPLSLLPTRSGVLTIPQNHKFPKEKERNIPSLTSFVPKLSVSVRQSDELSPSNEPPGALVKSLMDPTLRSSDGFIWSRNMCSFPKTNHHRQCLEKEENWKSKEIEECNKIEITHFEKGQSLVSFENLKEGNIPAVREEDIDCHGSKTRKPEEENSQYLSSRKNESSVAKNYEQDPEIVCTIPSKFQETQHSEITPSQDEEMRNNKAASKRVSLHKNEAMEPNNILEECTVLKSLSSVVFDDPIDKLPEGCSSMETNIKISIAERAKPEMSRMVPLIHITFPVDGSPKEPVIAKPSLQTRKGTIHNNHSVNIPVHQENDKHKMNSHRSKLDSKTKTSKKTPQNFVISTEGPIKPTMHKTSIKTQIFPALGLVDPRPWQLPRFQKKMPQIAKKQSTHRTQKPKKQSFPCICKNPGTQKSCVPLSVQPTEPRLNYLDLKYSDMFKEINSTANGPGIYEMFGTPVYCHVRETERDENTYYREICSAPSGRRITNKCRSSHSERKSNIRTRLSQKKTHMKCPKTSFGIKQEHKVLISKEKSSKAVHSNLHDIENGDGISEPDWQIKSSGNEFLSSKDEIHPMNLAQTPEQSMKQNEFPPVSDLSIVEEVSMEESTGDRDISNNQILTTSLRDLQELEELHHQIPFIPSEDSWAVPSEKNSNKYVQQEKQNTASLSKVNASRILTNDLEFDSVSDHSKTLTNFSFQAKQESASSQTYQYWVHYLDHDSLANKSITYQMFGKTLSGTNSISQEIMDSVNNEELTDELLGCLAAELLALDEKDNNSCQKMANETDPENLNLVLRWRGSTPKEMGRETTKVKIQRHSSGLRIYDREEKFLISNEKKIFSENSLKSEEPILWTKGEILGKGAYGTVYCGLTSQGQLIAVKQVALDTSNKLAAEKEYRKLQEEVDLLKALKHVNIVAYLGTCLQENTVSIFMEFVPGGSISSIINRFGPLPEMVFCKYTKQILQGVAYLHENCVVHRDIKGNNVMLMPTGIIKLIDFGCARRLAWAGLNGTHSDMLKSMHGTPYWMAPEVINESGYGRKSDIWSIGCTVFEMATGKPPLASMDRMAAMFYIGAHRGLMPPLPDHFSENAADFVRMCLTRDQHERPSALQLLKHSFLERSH
How it was run: as §1

[12] = biological target: T12, RIPK5 (Homo sapiens, UniProt Q6XUX3)
T12 construct: purchased Reaction Biology Corporation (Kinase HotSpot)
How it was run: as §1

[13] = biological target: T13, NEK1 (Homo sapiens, UniProt Q96PY6)
T13 construct: purchased Reaction Biology Corporation (Kinase HotSpot)
How it was run: as §1

[14] = biological target: T14, P38d/MAPK13 (Homo sapiens, UniProt O15264)
T14 construct: purchased Reaction Biology Corporation (Kinase HotSpot)
T14 sequence (O15264 whole entry): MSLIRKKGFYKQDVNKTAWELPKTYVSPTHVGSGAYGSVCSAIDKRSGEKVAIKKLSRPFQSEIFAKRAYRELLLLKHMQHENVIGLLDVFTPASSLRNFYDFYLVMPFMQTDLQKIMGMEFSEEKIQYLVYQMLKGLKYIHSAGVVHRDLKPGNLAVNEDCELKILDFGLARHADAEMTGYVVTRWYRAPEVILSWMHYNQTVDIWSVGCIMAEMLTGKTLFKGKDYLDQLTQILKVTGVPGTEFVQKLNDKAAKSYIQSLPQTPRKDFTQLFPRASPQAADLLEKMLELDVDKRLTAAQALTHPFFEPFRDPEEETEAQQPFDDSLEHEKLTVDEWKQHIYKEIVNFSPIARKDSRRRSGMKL
How it was run: as §1

[15] = biological target: T15, c-Kit (Homo sapiens, UniProt P10721)
T15 construct: purchased Reaction Biology Corporation (Kinase HotSpot)
How it was run: as §1

[16] = biological target: T16, STK39/STLK3 (Homo sapiens, UniProt Q9UEW8)
T16 construct: purchased Reaction Biology Corporation (Kinase HotSpot)
How it was run: as §1

[17] = biological target: T17, LYN B (Homo sapiens, UniProt P07948)
T17 construct: purchased Reaction Biology Corporation (Kinase HotSpot)
T17 sequence (P07948 1-491 isoform P07948-2): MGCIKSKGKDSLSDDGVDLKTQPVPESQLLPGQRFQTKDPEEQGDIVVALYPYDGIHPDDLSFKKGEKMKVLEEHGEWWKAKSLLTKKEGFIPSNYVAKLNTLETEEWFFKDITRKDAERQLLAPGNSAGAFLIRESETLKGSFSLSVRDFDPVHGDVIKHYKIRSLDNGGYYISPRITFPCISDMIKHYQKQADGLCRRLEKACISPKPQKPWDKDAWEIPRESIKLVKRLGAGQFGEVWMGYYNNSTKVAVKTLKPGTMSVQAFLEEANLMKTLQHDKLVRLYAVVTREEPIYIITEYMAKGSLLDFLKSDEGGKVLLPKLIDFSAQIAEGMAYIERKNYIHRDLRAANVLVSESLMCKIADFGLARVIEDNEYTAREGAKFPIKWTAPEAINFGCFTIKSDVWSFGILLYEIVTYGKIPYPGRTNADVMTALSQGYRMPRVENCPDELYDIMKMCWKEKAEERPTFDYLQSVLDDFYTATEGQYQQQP
How it was run: as §1

[18] = biological target: T18, PAK2 (Homo sapiens, UniProt Q13177)
T18 construct: purchased Reaction Biology Corporation (Kinase HotSpot)
T18 sequence (Q13177 whole entry): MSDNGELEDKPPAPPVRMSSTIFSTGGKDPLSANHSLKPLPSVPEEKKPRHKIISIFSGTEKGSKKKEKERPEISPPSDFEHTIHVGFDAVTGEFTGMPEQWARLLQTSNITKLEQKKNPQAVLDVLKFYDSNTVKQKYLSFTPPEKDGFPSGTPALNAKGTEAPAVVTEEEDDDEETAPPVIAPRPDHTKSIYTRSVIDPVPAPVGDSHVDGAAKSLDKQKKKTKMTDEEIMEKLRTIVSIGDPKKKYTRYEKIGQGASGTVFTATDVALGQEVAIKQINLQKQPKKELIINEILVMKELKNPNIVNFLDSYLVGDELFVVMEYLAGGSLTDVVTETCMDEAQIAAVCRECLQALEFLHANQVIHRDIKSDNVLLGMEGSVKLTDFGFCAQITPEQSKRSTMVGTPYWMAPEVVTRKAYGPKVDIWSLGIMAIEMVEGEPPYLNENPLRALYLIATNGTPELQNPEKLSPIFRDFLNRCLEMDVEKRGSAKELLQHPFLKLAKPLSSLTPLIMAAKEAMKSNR
How it was run: as §1

[19] = biological target: T19, PKCb1 (Homo sapiens, UniProt P05771)
T19 construct: purchased Reaction Biology Corporation (Kinase HotSpot)
How it was run: as §1

[20] = biological target: T20, MEK3 (Homo sapiens, UniProt P46734)
T20 construct: purchased Reaction Biology Corporation (Kinase HotSpot)
T20 sequence (P46734 whole entry): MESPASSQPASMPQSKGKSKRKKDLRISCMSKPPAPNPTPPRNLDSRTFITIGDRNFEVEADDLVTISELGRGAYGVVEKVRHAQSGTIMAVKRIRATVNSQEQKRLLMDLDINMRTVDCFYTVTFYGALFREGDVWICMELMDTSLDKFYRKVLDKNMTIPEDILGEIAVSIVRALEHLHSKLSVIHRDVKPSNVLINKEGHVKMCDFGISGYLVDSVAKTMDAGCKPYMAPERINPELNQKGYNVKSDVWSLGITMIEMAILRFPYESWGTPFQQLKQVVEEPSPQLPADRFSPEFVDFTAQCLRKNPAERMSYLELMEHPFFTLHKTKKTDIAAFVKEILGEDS
How it was run: as §1

[21] = biological target: T21, MAPKAPK2 (Homo sapiens, UniProt P49137)
T21 construct: purchased Reaction Biology Corporation (Kinase HotSpot)
How it was run: as §1

[22] = biological target: T22, ERK1 (Homo sapiens, UniProt P27361)
T22 construct: purchased Reaction Biology Corporation (Kinase HotSpot)
How it was run: as §1

[23] = biological target: T23, ALK3/BMPR1A (Homo sapiens, UniProt P36894)
T23 construct: purchased Reaction Biology Corporation (Kinase HotSpot)
How it was run: as §1

[24] = biological target: T24, LIMK2 (Homo sapiens, UniProt P53671)
T24 construct: purchased Reaction Biology Corporation (Kinase HotSpot)
How it was run: as §1

[25] = biological target: T25, PKCzeta (Homo sapiens, UniProt Q05513)
T25 construct: purchased Reaction Biology Corporation (Kinase HotSpot)
How it was run: as §1

[26] = biological target: T26, EPHB2 (Homo sapiens, UniProt P29323)
T26 construct: purchased Reaction Biology Corporation (Kinase HotSpot)
T26 sequence (P29323 19-1055): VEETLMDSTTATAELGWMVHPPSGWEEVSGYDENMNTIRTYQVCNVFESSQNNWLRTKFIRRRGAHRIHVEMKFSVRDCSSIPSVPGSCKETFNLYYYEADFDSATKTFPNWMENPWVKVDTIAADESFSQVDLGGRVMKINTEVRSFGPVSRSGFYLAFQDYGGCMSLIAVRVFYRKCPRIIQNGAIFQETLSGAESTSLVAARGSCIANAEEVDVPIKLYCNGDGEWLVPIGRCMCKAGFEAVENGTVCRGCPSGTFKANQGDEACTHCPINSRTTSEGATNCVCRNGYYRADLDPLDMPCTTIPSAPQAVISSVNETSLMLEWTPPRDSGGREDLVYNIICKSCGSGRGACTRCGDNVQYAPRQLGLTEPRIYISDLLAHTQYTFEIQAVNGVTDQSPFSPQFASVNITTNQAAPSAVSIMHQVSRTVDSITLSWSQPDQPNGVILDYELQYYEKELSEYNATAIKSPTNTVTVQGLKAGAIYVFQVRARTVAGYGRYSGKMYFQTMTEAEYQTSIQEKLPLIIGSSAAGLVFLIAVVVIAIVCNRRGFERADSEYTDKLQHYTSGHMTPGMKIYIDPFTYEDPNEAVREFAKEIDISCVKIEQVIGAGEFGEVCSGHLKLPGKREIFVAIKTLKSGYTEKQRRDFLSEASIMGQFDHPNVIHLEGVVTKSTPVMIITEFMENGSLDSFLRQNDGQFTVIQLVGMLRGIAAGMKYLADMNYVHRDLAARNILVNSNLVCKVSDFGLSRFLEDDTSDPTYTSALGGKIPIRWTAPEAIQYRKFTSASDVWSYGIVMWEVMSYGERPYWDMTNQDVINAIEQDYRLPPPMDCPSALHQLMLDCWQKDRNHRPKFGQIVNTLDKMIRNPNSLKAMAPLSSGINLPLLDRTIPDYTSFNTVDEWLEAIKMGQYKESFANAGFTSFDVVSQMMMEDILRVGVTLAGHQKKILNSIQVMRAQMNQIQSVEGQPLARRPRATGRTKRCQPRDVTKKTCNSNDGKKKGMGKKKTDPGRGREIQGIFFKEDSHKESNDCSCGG
How it was run: as §1

[27] = biological target: T27, LRRK2 (Homo sapiens, UniProt Q5S007)
T27 construct: purchased Reaction Biology Corporation (Kinase HotSpot)
How it was run: as §1

[28] = biological target: T28, FYN (Homo sapiens, UniProt P06241)
T28 construct: purchased Reaction Biology Corporation (Kinase HotSpot)
How it was run: as §1

[29] = biological target: T29, MRCKb/CDC42BPB (Homo sapiens, UniProt Q9Y5S2)
T29 construct: purchased Reaction Biology Corporation (Kinase HotSpot)
How it was run: as §1

[30] = biological target: T30, CHK2 (Homo sapiens, UniProt O96017)
T30 construct: purchased Reaction Biology Corporation (Kinase HotSpot)
T30 sequence (O96017 whole entry): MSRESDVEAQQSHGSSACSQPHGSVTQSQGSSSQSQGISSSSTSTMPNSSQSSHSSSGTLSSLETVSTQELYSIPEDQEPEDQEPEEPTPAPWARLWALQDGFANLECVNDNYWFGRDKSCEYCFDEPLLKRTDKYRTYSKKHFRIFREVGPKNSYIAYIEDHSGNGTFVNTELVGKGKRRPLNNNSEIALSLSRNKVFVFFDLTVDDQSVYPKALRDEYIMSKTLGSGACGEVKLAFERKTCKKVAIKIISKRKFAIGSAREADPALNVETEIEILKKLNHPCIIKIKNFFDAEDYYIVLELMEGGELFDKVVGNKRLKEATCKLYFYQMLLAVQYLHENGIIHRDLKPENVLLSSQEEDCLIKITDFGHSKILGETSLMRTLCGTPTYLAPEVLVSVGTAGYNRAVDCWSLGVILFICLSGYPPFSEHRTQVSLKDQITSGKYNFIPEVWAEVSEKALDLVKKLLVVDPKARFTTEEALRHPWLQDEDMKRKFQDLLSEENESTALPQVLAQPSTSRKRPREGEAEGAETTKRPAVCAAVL
How it was run: as §1

**Q.** `Cc1cnc(N[C@H]2CC[C@H](N)CC2)nc1-c1cnc2ccc(-c3ccccc3)cn12` [CDDD11-8] was tested. Which remaining activity at 1 µM [1] did it give?
**A.** 97.3%

**Q.** And the remaining activity at 1 µM [2]?
**A.** 37.1%

**Q.** What about the remaining activity at 1 µM [3] of the same molecule?
**A.** 87%

**Q.** What about the remaining activity at 1 µM [4] of the same molecule?
**A.** 90%

**Q.** And the remaining activity at 1 µM [5]?
**A.** 105%

**Q.** What about the remaining activity at 1 µM [6] of the same molecule?
**A.** 61.7%

**Q.** And the remaining activity at 1 µM [7]?
**A.** 91.1%

**Q.** What about the remaining activity at 1 µM [8] of the same molecule?
**A.** 76.5%

**Q.** And the remaining activity at 1 µM [9]?
**A.** 100%

**Q.** And the remaining activity at 1 µM [10]?
**A.** 98.5%

**Q.** And the remaining activity at 1 µM [11]?
**A.** 63.5%

**Q.** What about the remaining activity at 1 µM [12] of the same molecule?
**A.** 93%

**Q.** And the remaining activity at 1 µM [13]?
**A.** 40.8%

**Q.** What about the remaining activity at 1 µM [14] of the same molecule?
**A.** 99%

**Q.** And the remaining activity at 1 µM [15]?
**A.** 97.5%

**Q.** And the remaining activity at 1 µM [16]?
**A.** 45.7%

**Q.** And the remaining activity at 1 µM [17]?
**A.** 88.5%

**Q.** And the remaining activity at 1 µM [18]?
**A.** 96.7%

**Q.** What about the remaining activity at 1 µM [19] of the same molecule?
**A.** 87.4%

**Q.** What about the remaining activity at 1 µM [20] of the same molecule?
**A.** 71.5%

**Q.** And the remaining activity at 1 µM [21]?
**A.** 106%

**Q.** And the remaining activity at 1 µM [22]?
**A.** 97.3%

**Q.** And the remaining activity at 1 µM [23]?
**A.** 98%

**Q.** And the remaining activity at 1 µM [24]?
**A.** 93.8%

**Q.** And the remaining activity at 1 µM [25]?
**A.** 89.2%

**Q.** What about the remaining activity at 1 µM [26] of the same molecule?
**A.** 80.2%

**Q.** What about the remaining activity at 1 µM [27] of the same molecule?
**A.** 70.6%

**Q.** And the remaining activity at 1 µM [28]?
**A.** 63.2%

**Q.** And the remaining activity at 1 µM [29]?
**A.** 79.3%

**Q.** And the remaining activity at 1 µM [30]?
**A.** 97.2%
